Assay results as given in patent US20110105397A1, “METHOD FOR TREATING HEART FAILURE WITH STRESSCOPIN-LIKE PEPTIDES” (priority 2009, published 2011).
Read-outs that look alike come from different tables or passages of the source.

Experiments:
[1] = Human pharmacokinetics, healthy subjects, 24- or 72-hour infusion of 54 ng/kg/min; details: in vivo; for Vd: Vss; for Tmax: median
Experimental: In healthy subjects following a 24- or 72-hour infusion of 54 ng/kg/min of h-SCP (SEQ ID NO:1) noncompartmental pharmacokinetic analyses were performed on plasma concentrations of h-SCP (SEQ ID NO:1).

[2] = tested on: anaesthetized mongrel dogs; test: Hemodynamic, angiographic, echocardiographic profile in anaesthetized healthy dogs, 30-minute IV infusion; format: in vivo, dog; details: for CO (Cardiac output) / HR (Heart rate) / LV + dP/dt (LV contractility) / LVEDA (LV end diastolic area) / LVEDV (LV end diastolic volume) / LVEF (LV ejection fraction) / LVESA (LV end systolic area) / LVESV (LV end systolic volume) / LVFAS (LV fractional area of shortening) / PSAP (Peak systolic aortic pressure) / SV (Stroke volume): 30 min
Experimental: The effects of h-SCP (SEQ ID NO: 1) on cardiovascular function were also assessed in anaesthetized mongrel dogs following intravenous bolus and 30-minute infusions. Hemodynamic and left ventricular systolic and diastolic function was evaluated using conventional hemodynamic, angiographic, echocardiographic, and radiographic methods with the results summarized in Table 16.
The findings described above were further examined in a study, in which h-SCP (SEQ ID NO:1) was infused over a 30-minute period at the same total doses that were administered by bolus as described above with the results presented in Table 17 and FIGS. 11A & B. As in the case of bolus dosing h-SCP (SEQ ID NO:1) elicited dose- (infusion-) dependent changes in blood pressure, left ventricular systolic and diastolic function, and heart rate. However, at the lower range of the dose- (infusion-) response curve there was a pronounced lessening in the positive chronotropic and blood pressure response with marked and significant increase in cardiac function measured as increased CO and LVEF. […] The corresponding plasma concentration of h-SCP (SEQ ID NO:1) was 4,577 pg/mL.

[3] = tested on: Langendorff perfused rabbit heart; test: Retrograde-perfused Langendorff rabbit heart assay; details: bolus into the perfusion block
Experimental: The effect of h-SCP (SEQ ID NO:1) on heart rate (HR), left ventricular (LV) contraction, and vascular tone was assessed in a retrograde-perfused Langendorff rabbit heart assay.

[4] = male, 54 ng/kg, healthy subjects, 54 ng/kg/min, 24 Hours Male, mean, N = 7
[5] = male, 54 ng/kg, healthy subjects, 54 ng/kg/min, 72 Hours Male, mean, N = 7

H-TKFTLSLDVPTNIMNLLFNIAKAKNLRAQAAANAHLMAQI-NH2 [SEQ ID NO: 1, TKFTLSLDVPTNIMNLLFNIAKAKNLRAQAAANAHLMAQI-NH2]
half-life ([1]; female, 54 ng/kg, T1/2): 23.4 h | half-life ([1]; female, 54 ng/kg, T1/2, effective): 5.84 h | Vd ([1]; female, 54 ng/kg): 2.72 L/kg | AUC(0-inf) ([1]; female, 54 ng/kg, healthy subjects, 54 ng/kg/min, 72 Hours Female, mean, N = 5): 740 ng·h/mL | Cmax ([1]; female, 54 ng/kg, healthy subjects, 54 ng/kg/min, 72 Hours Female, mean, N = 6): 11.5 ng/mL | clearance ([1]; female, 54 ng/kg, healthy subjects, 54 ng/kg/min, 72 Hours Female, mean, N = 6, read-out: CL (converted)): 5.5 mL/min/kg | Tmax ([1]; female, 54 ng/kg, healthy subjects, 54 ng/kg/min, 72 Hours Female, N = 6): 18 h | half-life ([1]; 54 ng/kg/min, healthy subjects, 24- or 72-hour infusion of 54 ng/kg/min, read-out: Mean terminal half-life): 23.4 to 28.8 h | half-life ([1]; 54 ng/kg/min, healthy subjects, 24- or 72-hour infusion of 54 ng/kg/min, read-out: effective half-life): 5.84 to 9.62 h | clearance ([1]; 54 ng/kg/min, healthy subjects, 24- or 72-hour infusion of 54 ng/kg/min, read-out: mean clearance): 4.67 to 6.33 mL/min/kg | T1/2 ([1]; male, 54 ng/kg): 28.81 h | T1/2, effective ([1]; male, 54 ng/kg): 9.62 h | Vss ([1]; male, 54 ng/kg): 4.94 L/kg | half-life ([1]; male, 54 ng/kg, T1/2): 25.7 h | half-life ([1]; male, 54 ng/kg, T1/2, effective): 9.37 h | Vd ([1]; male, 54 ng/kg): 3.7 L/kg | AUC(0-inf) [1, 4]: 283 ng·h/mL | Cmax [1, 4]: 12.2 ng/mL | clearance ([1]; male, 54 ng/kg, healthy subjects, 54 ng/kg/min, 24 Hours Male, mean, N = 7, read-out: CL (converted)): 4.67 mL/min/kg | Tmax ([1]; male, 54 ng/kg, healthy subjects, 54 ng/kg/min, 24 Hours Male, N = 7): 16 h | AUC(0-inf) [1, 5]: 632 ng·h/mL | Cmax [1, 5]: 10.2 ng/mL | clearance ([1]; male, 54 ng/kg, healthy subjects, 54 ng/kg/min, 72 Hours Male, mean, N = 7, read-out: CL (converted)): 6.33 mL/min/kg | Tmax ([1]; male, 54 ng/kg, healthy subjects, 54 ng/kg/min, 72 Hours Male, N = 7): 24 h | CO (Cardiac output) ([2]; IV infusion 22 ng/kg/min): 2.32 L/min | HR (Heart rate) ([2]; IV infusion 22 ng/kg/min): 81.2 beats/min | LV + dP/dt (LV contractility) ([2]; IV infusion 22 ng/kg/min): 1598 mmHg/sec | LVEDA (LV end diastolic area) ([2]; IV infusion 22 ng/kg/min): 12.2 cm^2 | LVEDV (LV end diastolic volume) ([2]; IV infusion 22 ng/kg/min): 53.0 mL | LVEF (LV ejection fraction) ([2]; IV infusion 22 ng/kg/min): 54.0% | LVESA (LV end systolic area) ([2]; IV infusion 22 ng/kg/min): 6.3 cm^2 | LVESV (LV end systolic volume) ([2]; IV infusion 22 ng/kg/min): 24.5 mL | LVFAS (LV fractional area of shortening) ([2]; IV infusion 22 ng/kg/min): 49% | PSAP (Peak systolic aortic pressure) ([2]; IV infusion 22 ng/kg/min): 95.0 mmHg | SV (Stroke volume) ([2]; IV infusion 22 ng/kg/min): 28.5 mL | CO (Cardiac output) ([2]; IV infusion 43 ng/kg/min): 2.82 L/min | HR (Heart rate) ([2]; IV infusion 43 ng/kg/min): 88.7 beats/min | LV + dP/dt (LV contractility) ([2]; IV infusion 43 ng/kg/min): 1875 mmHg/sec | LVEDA (LV end diastolic area) ([2]; IV infusion 43 ng/kg/min): 11.9 cm^2 | LVEDV (LV end diastolic volume) ([2]; IV infusion 43 ng/kg/min): 55.2 mL | LVEF (LV ejection fraction) ([2]; IV infusion 43 ng/kg/min): 57.5% | LVESA (LV end systolic area) ([2]; IV infusion 43 ng/kg/min): 5.8 cm^2 | LVESV (LV end systolic volume) ([2]; IV infusion 43 ng/kg/min): 23.5 mL | LVFAS (LV fractional area of shortening) ([2]; IV infusion 43 ng/kg/min): 51.5% | PSAP (Peak systolic aortic pressure) ([2]; IV infusion 43 ng/kg/min): 95.2 mmHg | SV (Stroke volume) ([2]; IV infusion 43 ng/kg/min): 31.7 mL | CO (Cardiac output) ([2]; IV infusion 86 ng/kg/min): 2.81 L/min | HR (Heart rate) ([2]; IV infusion 86 ng/kg/min): 91.0 beats/min | LV + dP/dt (LV contractility) ([2]; IV infusion 86 ng/kg/min): 1622 mmHg/sec | LVEDA (LV end diastolic area) ([2]; IV infusion 86 ng/kg/min): 11.8 cm^2 | LVEDV (LV end diastolic volume) ([2]; IV infusion 86 ng/kg/min): 54.2 mL | LVEF (LV ejection fraction) ([2]; IV infusion 86 ng/kg/min): 56.5% | LVESA (LV end systolic area) ([2]; IV infusion 86 ng/kg/min): 5.9 cm^2 | LVESV (LV end systolic volume) ([2]; IV infusion 86 ng/kg/min): 23.5 mL | LVFAS (LV fractional area of shortening) ([2]; IV infusion 86 ng/kg/min): 50.0% | PSAP (Peak systolic aortic pressure) ([2]; IV infusion 86 ng/kg/min): 91.7 mmHg | SV (Stroke volume) ([2]; IV infusion 86 ng/kg/min): 30.7 mL | CO (Cardiac output) ([2]; IV infusion 146 ng/kg/min): 2.97 L/min | HR (Heart rate) ([2]; IV infusion 146 ng/kg/min): 102.5 beats/min | LV + dP/dt (LV contractility) ([2]; IV infusion 146 ng/kg/min): 1594 mmHg/sec | LVEDA (LV end diastolic area) ([2]; IV infusion 146 ng/kg/min): 11.5 cm^2 | LVEDV (LV end diastolic volume) ([2]; IV infusion 146 ng/kg/min): 49.5 mL | LVEF (LV ejection fraction) ([2]; IV infusion 146 ng/kg/min): 58.2% | LVESA (LV end systolic area) ([2]; IV infusion 146 ng/kg/min): 5.6 cm^2 | LVESV (LV end systolic volume) ([2]; IV infusion 146 ng/kg/min): 20.7 mL | LVFAS (LV fractional area of shortening) ([2]; IV infusion 146 ng/kg/min): 51% | PSAP (Peak systolic aortic pressure) ([2]; IV infusion 146 ng/kg/min): 90.0 mmHg | SV (Stroke volume) ([2]; IV infusion 146 ng/kg/min): 28.7 mL | CO (Cardiac output) ([2]; IV infusion 437 ng/kg/min): 3.25 L/min | LV + dP/dt (LV contractility) ([2]; IV infusion 437 ng/kg/min): 1657 mmHg/sec | LVEDA (LV end diastolic area) ([2]; IV infusion 437 ng/kg/min): 10.8 cm^2 | LVEDV (LV end diastolic volume) ([2]; IV infusion 437 ng/kg/min): 46.0 mL | LVEF (LV ejection fraction) ([2]; IV infusion 437 ng/kg/min): 60.7% | LVESA (LV end systolic area) ([2]; IV infusion 437 ng/kg/min): 5.1 cm^2 | LVESV (LV end systolic volume) ([2]; IV infusion 437 ng/kg/min): 18.2 mL | LVFAS (LV fractional area of shortening) ([2]; IV infusion 437 ng/kg/min): 53.5% | PSAP (Peak systolic aortic pressure) ([2]; IV infusion 437 ng/kg/min): 89.5 mmHg | SV (Stroke volume) ([2]; IV infusion 437 ng/kg/min): 28 mL | HR (Heart rate) ([2]; IV infusion 437 ng/kg/min, junctional tachycardia): 117.3 beats/min | minimum anticipated biological effect level (MABEL) ([2]; healthy dogs): 22 ng/kg/min | infusion rate for minimal effect ([2]; healthy dogs, 30-minute infusion): 43 ng/kg/min | EC50 ([3]; read-out: concentration for 50% response, decrease in coronary perfusion pressure (CPP)): 46 nM | EC50 ([3]; read-out: concentration for 50% response, increase in heart rate): 52 nM | EC50 ([3]; read-out: concentration for 50% response, increase in left ventricular developed pressure (dP/dtmax)): 9.9 nM
